# Laboratory results taken from patent publication US8415469B2, “Compounds and methods for kinase modulation, and indications therefor” (Plexxikon Inc., priority 2005, dated 2013).
# Legend:
# Assay type in all cases: biochemical
# B-Raf V600E = biological target: T1, B-Raf V600E (Homo sapiens, UniProt P15056, V600E); assay: AlphaScreen kinase assay, B-Raf V600E; conditions: read-out: IC50, activity toward kinase B-Raf V600E
# T1 construct: P4254. pFastBacBD-CDC37 BRAF D437-K722-X, V600E; His6 with pFastBac HT leader (TEV site) (N); made in house; host or cells: Sf9 (baculovirus; chaperone CDC37 co-expressed)
# Btk = biological target: T2, Btk (Homo sapiens, UniProt Q06187); assay: Z'-Lyte FRET kinase assay (Invitrogen), Btk; conditions: read-out: IC50, activity toward kinase Btk
# T2 construct: purchased Invitrogen (assay run by Invitrogen)
# EphB2 = biological target: T3, EphB2 (Homo sapiens, UniProt P29323); assay: Z'-Lyte FRET kinase assay (Invitrogen), EphB2; conditions: read-out: IC50, activity toward kinase EphB2
# T3 construct: purchased Invitrogen (assay run by Invitrogen)
# T3 sequence (P29323 19-1055): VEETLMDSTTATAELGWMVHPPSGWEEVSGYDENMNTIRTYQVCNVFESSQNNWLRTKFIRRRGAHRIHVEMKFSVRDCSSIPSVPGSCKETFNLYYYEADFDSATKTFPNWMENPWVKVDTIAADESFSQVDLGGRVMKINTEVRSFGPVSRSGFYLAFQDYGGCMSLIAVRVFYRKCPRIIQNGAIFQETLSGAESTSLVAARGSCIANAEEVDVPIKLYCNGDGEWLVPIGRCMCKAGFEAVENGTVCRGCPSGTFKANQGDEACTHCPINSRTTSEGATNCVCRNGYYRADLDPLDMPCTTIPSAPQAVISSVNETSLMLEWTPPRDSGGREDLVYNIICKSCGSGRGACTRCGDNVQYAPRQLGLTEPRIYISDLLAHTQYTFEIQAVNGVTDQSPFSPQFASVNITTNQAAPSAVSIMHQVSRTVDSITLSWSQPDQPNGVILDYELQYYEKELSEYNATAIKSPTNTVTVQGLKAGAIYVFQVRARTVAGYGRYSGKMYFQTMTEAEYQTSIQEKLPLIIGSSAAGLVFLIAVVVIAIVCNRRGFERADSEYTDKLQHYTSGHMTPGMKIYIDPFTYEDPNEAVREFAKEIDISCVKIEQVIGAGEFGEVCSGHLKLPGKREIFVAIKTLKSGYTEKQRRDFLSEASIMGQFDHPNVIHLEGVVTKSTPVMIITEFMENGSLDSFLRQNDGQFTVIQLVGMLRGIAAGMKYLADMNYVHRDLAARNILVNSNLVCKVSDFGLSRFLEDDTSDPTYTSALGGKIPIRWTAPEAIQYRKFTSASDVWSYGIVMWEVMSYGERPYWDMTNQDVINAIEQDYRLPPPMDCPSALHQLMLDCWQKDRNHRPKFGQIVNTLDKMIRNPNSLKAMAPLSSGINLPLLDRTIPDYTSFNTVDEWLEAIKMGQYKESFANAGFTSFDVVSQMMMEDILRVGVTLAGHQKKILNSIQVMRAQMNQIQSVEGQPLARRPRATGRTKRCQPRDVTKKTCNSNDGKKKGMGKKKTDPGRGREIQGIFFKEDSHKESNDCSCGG
# Excerpt: The effect of potential modulators of kinase activity can be measured in a variety of different assays known in the art. For example, direct radiometric, indirect FRET or AlphaScreen assays may be used to assess the level of phosphorylation of a substrate in the presence of test compounds in order to determine the inhibitory affect of the compound on the kinase. Invitrogen (Carlsbad, Calif.) uses a FRET based assay for Btk, EGFR, EphB2, Flt3, lrak4, Kdr, MAP2K1, MAPKAPK2, PDGFRB, PKC theta, Stk6 and Yes. For these assays, compounds of the invention were screened by Invitrogen using Z′-Lyte™ kinase assay.
# Briefly, the Invitrogen kinase assay involves use of a specific peptide substrate optimized for each kinase, containing a fluorophore at each end that make up the FRET pair. The peptide sensitivity to proteolytic cleavage depends on phosphorylation of the peptide. Non-phosphorylated peptide is cleaved by a protease while peptide phosphorylated by the kinase is not cleaved. Cleavage of the peptide disrupts the FRET between the donor (coumarin) and acceptor (fluorescein) fluorophores, resulting in an increase in the ratio of donor emission to acceptor emission. The emission ratio of coumarin to fluorescein is used to assess the reaction progress. The extent of phosphorylation is determined from the emission ratio, which is low when the kinase is active (phosphorylated peptide is not cleaved, FRET pair connected) or higher for inhibited kinase (non-phosphorylated peptide is cleaved, FRET pair separated). Thus, the assay involves a kinase reaction in the presence of varying concentrations of a given compound, a development reaction with site specific protease, and detection of the fluorescent emission ratio of coumarin and fluorscein. […] Reaction conditions for each kinase are determined to provide optimal reaction times, incubation temperature, kinase and ATP concentrations. Test samples are made up in 1× kinase buffer (50 mM HEPES pH 7.5, 50 mM MgCl2, 5 mM EGTA, 0.05% BRIJ-35) and compound at desired concentration prepared in DMSO such that the final DMSO is 1%. […] Typically, assay plates are prepared to 10 μl final volume per sample, adding 2.5 μl of compound at 4× the desired concentration in 4% DMSO (serial dilution of compound provides concentration curve), 5 μl of the desired kinase mixed with Z′-LYTE™ peptide substrate (2× in 2× kinase buffer, final peptide at 2 μM), and 2.5 μl of 4×ATP solution. All kinase except for MAP2K1 were at 10 μM ATP in the kinase reaction, while MAP2K1 was at 100 μM. Samples are mixed and the kinase reaction is incubated 1 hour at room temperature, after which 5 μl of development solution is added and mixed. After incubation for another 1 hour at room temperature, 5 μl of stop reagent is added to each sample and mixed. The fluorescence signals are measured to determine the emission ratio.
# Kdr = biological target: T4, Kdr (Homo sapiens, UniProt P35968); assay: Z'-Lyte FRET kinase assay (Invitrogen), Kdr; conditions: read-out: IC50, activity toward kinase Kdr
# T4 construct: purchased Invitrogen (assay run by Invitrogen)
# Ret = biological target: T5, Ret (Homo sapiens, UniProt P07949); assay: AlphaScreen kinase assay, Ret; conditions: read-out: IC50, activity toward kinase Ret
# T5 construct: P1378.pET-SF BI-PTP RET H661-R1012 HIS; made in house
# T5 sequence (P07949 with tags, fused parts or gaps): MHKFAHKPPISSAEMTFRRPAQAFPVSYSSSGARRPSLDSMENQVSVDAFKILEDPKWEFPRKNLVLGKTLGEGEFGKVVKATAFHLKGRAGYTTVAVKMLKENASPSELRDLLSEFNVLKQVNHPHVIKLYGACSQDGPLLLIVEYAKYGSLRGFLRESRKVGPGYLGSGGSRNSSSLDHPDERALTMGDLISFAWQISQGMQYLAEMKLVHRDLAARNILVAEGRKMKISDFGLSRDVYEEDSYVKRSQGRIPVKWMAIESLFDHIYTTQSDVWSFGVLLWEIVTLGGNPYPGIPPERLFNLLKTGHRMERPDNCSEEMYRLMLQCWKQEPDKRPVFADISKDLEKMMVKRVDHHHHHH
# Yes = biological target: T6, Yes (Homo sapiens, UniProt P07947); assay: Z'-Lyte FRET kinase assay (Invitrogen), Yes; conditions: read-out: IC50, activity toward kinase Yes
# T6 construct: purchased Invitrogen (Carlsbad, Calif.), screening service
# Procedure, shortened: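 Inhibition was inferred from protease cleavage of non-phosphorylated peptide, measured as a coumarin/fluorescein ratio. Kinase reactions used 10 μM ATP for 1 h at room temperature.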
# Gsk3β = Gsk3β (Homo sapiens, UniProt P49841); assay: AlphaScreen kinase assay, Gsk3β; conditions: read-out: IC50, activity toward kinase Gsk3β
# Excerpt: AlphaScreen assay was used to screen additional kinases. The assay is similarly dependent on the phosphorylation of a peptide substrate. In this assay, an antibody that recognizes phosphorylated substrate is bound to an acceptor bead. The peptide substrate is attached to biotin, which binds to a donor head that contains streptavidin. Thus phosphorylated substrate is bound by antibody and streptavidin, bringing the donor and acceptor heads into close proximity when kinase is not inhibited. The donor produces singlet oxygen which results in emission from the acceptor when they are in close proximity. Conversely, when kinase is inhibited, the donor and acceptor beads are not associated and the emission from the acceptor is reduced.
# AlphaScreen assays were done using compounds dissolved in DMSO to a concentration of 20 mM. The compounds were diluted accordingly to the desired final concentrations in each sample well, using 1:3 serial dilution for a total of 8 concentration points.
# IKK beta = biological target: T7, IKK beta (Homo sapiens, UniProt O14920); assay: AlphaScreen kinase assay, IKK beta; conditions: read-out: IC50, activity toward kinase IKK beta
# T7 sequence (O14920 1-756): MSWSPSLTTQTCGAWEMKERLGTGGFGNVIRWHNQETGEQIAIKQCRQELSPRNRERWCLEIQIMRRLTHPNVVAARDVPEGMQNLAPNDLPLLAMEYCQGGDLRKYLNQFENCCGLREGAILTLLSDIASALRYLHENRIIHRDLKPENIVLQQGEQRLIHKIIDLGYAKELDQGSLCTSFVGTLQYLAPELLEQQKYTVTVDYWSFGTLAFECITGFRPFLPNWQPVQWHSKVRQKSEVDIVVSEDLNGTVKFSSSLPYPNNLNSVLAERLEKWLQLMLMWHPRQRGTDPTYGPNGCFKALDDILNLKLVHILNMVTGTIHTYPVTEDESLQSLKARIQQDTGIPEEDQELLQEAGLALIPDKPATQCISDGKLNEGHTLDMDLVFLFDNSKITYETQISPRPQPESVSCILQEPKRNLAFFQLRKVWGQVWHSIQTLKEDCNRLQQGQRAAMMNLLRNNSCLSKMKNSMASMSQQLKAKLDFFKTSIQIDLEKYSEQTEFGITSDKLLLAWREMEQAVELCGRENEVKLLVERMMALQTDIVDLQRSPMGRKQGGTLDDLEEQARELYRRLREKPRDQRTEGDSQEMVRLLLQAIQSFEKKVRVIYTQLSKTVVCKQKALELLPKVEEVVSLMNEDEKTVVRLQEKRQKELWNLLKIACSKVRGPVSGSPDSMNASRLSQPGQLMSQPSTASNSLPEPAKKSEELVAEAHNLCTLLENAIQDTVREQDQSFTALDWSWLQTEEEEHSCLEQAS
# Flt1 = biological target: T8, Flt1 (Homo sapiens, UniProt P17948); assay: AlphaScreen kinase assay, Flt1; conditions: read-out: IC50, activity toward kinase Flt1
# T8 construct: P1826.pETN6 BI-PTP FLT1 M799-D1165-X WT; His6 (N); made in house; host or cells: E. coli (PTP1B co-expressed)
# T8 sequence (P17948 with tags, fused parts or gaps): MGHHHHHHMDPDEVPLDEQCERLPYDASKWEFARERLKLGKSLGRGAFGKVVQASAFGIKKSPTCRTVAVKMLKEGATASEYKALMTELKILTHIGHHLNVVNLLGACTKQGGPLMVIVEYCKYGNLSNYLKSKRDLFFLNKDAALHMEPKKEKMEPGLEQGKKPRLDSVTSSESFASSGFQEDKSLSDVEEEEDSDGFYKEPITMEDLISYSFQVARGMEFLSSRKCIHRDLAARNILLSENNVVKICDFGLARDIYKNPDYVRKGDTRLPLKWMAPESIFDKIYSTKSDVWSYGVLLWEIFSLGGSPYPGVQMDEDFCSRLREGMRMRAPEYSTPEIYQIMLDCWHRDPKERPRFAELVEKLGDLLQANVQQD
# Kit = biological target: T9, Kit (Homo sapiens, UniProt P10721); assay: AlphaScreen kinase assay, Kit; conditions: read-out: IC50, activity toward kinase Kit
# T9 construct: P1332.N6 BI PTP KIT M552-K948-X COD; His6 (N); made in house; host or cells: E. coli (PTP1B co-expressed)
# MAP2K1 = biological target: T10, MAP2K1 (Homo sapiens, UniProt Q02750); assay: Z'-Lyte FRET kinase assay (Invitrogen), MAP2K1; conditions: read-out: IC50, activity toward kinase MAP2K1
# T10 construct: purchased Invitrogen (assay run by Invitrogen)
# Stk6 = biological target: T11, Stk6 (Homo sapiens, UniProt O14965); assay: Z'-Lyte FRET kinase assay (Invitrogen), Stk6; conditions: read-out: IC50, activity toward kinase Stk6
# T11 construct: purchased Invitrogen (Carlsbad, Calif.), screening service
# T11 sequence (O14965 1-403): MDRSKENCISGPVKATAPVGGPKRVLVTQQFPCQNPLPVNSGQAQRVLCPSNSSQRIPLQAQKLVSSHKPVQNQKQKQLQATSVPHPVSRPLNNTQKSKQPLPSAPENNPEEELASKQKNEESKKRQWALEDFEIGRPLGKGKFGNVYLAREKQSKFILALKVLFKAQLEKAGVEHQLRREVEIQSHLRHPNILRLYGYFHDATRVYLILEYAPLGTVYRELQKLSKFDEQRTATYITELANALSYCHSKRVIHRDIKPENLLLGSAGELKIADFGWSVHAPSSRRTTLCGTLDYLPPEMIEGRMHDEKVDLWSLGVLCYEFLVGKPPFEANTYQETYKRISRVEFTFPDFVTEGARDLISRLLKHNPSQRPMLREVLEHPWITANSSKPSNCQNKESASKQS
# T9 sequence (P10721 with tags, fused parts or gaps): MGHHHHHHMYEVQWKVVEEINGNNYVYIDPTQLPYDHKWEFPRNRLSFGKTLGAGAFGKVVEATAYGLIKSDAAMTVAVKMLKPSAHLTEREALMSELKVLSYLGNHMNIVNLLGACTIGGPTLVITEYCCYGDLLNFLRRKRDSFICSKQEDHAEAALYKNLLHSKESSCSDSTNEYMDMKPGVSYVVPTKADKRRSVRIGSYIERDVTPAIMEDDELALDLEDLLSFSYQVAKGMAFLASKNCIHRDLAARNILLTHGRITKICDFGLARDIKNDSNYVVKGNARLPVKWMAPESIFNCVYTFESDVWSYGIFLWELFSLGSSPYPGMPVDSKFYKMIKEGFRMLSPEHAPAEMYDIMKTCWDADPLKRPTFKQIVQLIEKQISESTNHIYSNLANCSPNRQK
# T2 sequence (Q06187 whole entry): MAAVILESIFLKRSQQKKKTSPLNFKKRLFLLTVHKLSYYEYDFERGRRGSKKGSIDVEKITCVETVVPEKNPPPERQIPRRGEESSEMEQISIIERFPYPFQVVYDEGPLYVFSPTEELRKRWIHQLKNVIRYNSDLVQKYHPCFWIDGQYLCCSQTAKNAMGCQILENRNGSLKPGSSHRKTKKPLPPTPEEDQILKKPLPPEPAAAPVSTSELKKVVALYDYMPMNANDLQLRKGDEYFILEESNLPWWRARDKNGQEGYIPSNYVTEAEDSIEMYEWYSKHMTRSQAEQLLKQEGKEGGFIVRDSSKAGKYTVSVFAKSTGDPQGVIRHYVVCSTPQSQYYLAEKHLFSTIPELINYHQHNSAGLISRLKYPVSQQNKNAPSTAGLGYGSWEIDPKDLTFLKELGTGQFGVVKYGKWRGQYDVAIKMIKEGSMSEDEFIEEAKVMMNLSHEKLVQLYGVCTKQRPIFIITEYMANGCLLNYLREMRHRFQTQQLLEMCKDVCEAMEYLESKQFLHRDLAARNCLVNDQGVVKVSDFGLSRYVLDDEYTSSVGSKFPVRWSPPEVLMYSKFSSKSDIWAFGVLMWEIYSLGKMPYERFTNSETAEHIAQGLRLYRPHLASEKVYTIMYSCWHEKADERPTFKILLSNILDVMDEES
# Gsk3β, sequence (P49841 whole entry): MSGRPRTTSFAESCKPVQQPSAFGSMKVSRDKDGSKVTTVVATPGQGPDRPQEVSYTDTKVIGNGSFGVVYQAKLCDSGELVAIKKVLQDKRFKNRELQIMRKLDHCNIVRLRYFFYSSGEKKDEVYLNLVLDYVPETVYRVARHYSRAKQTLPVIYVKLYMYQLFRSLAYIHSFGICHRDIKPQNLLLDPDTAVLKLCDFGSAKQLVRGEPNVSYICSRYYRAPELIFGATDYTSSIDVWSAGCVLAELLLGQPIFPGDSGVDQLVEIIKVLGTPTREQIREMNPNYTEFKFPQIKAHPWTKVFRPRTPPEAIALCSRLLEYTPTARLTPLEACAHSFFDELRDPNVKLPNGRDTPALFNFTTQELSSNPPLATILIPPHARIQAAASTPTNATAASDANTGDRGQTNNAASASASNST
# T6 sequence (P07947 whole entry): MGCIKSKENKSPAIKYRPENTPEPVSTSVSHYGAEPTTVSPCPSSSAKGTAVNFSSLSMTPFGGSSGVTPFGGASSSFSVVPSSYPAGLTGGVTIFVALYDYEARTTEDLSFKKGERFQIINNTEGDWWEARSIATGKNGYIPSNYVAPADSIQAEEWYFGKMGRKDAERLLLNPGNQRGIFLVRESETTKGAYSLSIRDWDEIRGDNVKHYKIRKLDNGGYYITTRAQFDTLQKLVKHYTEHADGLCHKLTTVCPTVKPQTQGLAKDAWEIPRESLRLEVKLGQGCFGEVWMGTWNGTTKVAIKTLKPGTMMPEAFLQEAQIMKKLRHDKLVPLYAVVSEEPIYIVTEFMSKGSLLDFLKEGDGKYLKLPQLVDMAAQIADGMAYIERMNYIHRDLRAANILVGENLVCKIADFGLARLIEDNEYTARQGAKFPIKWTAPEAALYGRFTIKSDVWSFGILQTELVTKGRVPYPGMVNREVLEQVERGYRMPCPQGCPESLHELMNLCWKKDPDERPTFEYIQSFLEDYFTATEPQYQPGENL
# T4 sequence (P35968 20-1356): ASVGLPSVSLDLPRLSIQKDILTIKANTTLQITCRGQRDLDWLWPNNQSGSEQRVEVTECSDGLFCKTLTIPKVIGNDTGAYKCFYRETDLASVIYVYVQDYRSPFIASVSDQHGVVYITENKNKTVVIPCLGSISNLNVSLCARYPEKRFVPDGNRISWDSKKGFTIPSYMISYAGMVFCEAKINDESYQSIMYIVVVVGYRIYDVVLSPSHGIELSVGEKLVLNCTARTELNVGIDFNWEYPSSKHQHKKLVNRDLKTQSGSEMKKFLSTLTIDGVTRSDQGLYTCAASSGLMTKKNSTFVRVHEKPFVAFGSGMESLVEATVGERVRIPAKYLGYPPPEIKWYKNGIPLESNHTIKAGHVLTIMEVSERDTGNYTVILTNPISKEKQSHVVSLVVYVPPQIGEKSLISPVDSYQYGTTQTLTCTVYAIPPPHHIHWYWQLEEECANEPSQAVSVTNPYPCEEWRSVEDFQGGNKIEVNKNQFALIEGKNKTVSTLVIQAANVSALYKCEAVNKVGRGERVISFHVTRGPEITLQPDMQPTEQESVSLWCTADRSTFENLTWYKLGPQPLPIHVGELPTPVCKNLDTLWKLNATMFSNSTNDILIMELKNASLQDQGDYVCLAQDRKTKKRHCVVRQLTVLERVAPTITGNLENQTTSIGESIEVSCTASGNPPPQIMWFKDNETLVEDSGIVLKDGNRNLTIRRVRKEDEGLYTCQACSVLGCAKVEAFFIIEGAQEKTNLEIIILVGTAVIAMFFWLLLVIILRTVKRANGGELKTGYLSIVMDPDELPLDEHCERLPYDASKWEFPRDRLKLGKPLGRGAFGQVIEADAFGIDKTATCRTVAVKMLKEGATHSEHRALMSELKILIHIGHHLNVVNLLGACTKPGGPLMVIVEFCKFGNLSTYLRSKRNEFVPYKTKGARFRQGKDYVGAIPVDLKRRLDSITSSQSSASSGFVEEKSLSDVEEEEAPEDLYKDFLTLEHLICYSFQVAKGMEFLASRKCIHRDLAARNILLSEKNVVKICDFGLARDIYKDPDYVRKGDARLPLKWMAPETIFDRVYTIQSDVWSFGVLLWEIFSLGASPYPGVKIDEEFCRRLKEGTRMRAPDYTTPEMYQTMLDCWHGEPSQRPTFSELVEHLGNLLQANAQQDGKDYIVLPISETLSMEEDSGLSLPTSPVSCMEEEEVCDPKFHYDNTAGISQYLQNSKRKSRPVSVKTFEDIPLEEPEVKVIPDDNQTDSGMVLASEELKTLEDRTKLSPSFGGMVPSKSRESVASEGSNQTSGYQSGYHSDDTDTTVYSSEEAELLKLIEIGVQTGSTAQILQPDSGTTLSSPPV
# T1 sequence (P15056 with tags, fused parts or gaps V600E): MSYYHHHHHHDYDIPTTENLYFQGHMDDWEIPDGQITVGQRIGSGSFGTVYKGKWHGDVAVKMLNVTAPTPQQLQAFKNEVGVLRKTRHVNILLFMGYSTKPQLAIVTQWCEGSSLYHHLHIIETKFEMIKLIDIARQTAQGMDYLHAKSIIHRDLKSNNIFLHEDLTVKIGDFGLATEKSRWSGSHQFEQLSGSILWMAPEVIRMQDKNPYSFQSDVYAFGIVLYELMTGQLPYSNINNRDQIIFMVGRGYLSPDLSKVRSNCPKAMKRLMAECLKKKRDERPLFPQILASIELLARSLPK
# T10 sequence (Q02750 whole entry): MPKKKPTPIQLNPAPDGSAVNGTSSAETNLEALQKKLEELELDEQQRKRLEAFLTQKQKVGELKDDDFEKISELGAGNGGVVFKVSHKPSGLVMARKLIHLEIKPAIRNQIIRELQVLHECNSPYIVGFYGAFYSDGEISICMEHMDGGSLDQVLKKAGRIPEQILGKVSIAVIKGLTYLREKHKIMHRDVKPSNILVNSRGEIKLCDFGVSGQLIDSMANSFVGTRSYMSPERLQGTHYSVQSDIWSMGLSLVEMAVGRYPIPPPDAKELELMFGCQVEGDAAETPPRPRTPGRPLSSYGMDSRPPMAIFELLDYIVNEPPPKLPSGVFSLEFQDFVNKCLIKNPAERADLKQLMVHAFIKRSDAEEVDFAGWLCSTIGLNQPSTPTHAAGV
smiles,measurement,setting,value
NC(=O)c1ccc(-c2ccnc3[nH]cc(C(=O)c4cccc(Cl)c4Cl)c23)cc1 [Compound P-0053],IC50,B-Raf V600E,≤ 10 µM
same,IC50,Btk,≤ 10 µM
same,IC50,EphB2,≤ 10 µM
same,IC50,Kdr,≤ 10 µM
same,IC50,Ret,≤ 10 µM
same,IC50,Yes,≤ 10 µM
same,IC50,Gsk3β,≤ 10 µM
C[C@H]1CN(c2ccc(-c3ccnc4[nH]ccc34)cn2)CCN1 [Compound P-0410],IC50,IKK beta,≤ 10 µM
COc1ccc(C#Cc2ccnc3[nH]ccc23)cc1 [Compound P-0920],IC50,IKK beta,≤ 10 µM
CSc1cccc(-c2c[nH]c3ncccc23)c1 [Compound P-0315],IC50,Flt1,≤ 10 µM
same,IC50,Kit,≤ 10 µM
same,IC50,IKK beta,≤ 10 µM
c1ccc2oc(-c3ccnc4[nH]ccc34)cc2c1 [Compound P-0790],IC50,IKK beta,≤ 10 µM
COc1ccc(-c2c[nH]c3ncccc23)cc1F [Compound P-0690],IC50,Kit,≤ 10 µM
same,IC50,IKK beta,≤ 10 µM
O=C(CCBr)c1c[nH]c2ncccc12 [Compound P-0081],IC50,Btk,≤ 10 µM
same,IC50,Kdr,≤ 10 µM
same,IC50,MAP2K1,≤ 10 µM
same,IC50,Stk6,≤ 10 µM
same,IC50,Yes,≤ 10 µM
same,IC50,Gsk3β,≤ 10 µM
c1cc(-c2ccsc2)c2cc[nH]c2n1 [Compound P-0629],IC50,Flt1,≤ 10 µM
same,IC50,IKK beta,≤ 10 µM
CCS(=O)(=O)c1ccc(-c2c(C)[nH]c3ncccc23)cc1 [Compound P-1223],IC50,IKK beta,≤ 10 µM
